Where a name gives a salt, the structure may show the parent alone.

The target of this experiment is T1, TLR7/NFKb HEK cells (Homo sapiens, UniProt Q9NYK1).
T1 construct: expressed in transfected cells; host or cells: HEK cells (TLR7/NFKb reporter line)
T1 sequence (Q9NYK1 27-1049): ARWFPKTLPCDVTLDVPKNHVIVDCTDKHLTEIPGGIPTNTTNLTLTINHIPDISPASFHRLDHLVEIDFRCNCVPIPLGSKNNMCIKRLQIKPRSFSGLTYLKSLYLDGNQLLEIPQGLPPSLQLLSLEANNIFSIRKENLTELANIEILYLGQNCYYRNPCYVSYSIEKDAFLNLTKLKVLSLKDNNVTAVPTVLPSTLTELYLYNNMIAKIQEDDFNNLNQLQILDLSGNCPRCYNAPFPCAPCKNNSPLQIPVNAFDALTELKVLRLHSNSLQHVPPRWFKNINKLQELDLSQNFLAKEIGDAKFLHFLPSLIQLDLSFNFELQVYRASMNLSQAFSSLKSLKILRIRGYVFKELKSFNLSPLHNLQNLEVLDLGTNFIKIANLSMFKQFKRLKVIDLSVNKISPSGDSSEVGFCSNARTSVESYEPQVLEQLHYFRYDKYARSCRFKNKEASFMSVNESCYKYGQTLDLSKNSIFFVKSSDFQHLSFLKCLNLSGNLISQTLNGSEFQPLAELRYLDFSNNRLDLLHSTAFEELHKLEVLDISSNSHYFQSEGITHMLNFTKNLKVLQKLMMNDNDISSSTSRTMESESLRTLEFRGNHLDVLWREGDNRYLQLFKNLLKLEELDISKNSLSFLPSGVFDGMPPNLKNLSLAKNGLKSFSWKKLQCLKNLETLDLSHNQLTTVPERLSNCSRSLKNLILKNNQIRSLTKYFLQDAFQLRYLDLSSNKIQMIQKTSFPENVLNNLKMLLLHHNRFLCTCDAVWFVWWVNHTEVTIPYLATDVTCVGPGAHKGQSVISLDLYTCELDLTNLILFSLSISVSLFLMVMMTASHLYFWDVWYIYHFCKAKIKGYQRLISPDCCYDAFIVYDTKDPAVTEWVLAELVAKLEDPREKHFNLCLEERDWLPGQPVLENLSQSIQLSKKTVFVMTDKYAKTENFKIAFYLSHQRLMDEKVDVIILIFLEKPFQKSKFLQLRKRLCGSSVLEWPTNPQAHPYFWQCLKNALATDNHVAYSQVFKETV
Briefly: HEK Cell Assay (TLR7/NFKb reporter, Steady-Glo luciferase readout). Conditions: 30 min compound preincubation, then R*48 agonist for 5 hours, read-out: Potency. Format: cell-based. The procedure, abridged:
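Steady-Glo luminescence after 5 h stimulation with R*48 agonist, following 30 min compound preincubation. Assay run in HEK cells carrying a TLR7/NFKb luciferase reporter, plated at 5000 cells/well and grown 24 h at 37° C (10% CO2) before treatment.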

Consider `C[C@H]1C[C@@H](NC(=O)Cc2c[nH]cn2)CN(c2ccnc3nccnc23)C1` [Compound 131, 2-(1H-imidazol-4-yl)-N-[(3R,5S)-5-methyl-1-[pyrido[2,3-b]pyrazin-8-yl]piperidin-3-yl]acetamide], for which the IC50 is more than 10000 nM.

`N#Cc1ccc(N2C[C@H](NC(=O)N3C[C@@H](F)[C@@H](F)C3)C[C@H](C(F)(F)F)C2)c2cccnc12` [Compound 581, (3R,4S)-3,4-Difluoro-pyrrolidine-1-carboxylic Acid [(3R,5S)-1-(8-cyano-quinolin-5-yl)-5-trifluoromethyl-piperidin-3-yl]-amide]: the IC50 is 1000 to 10000 nM.

In the case of `C[C@H]1C[C@@H](NC(=O)CN2CCOCC2)CN(c2ccc(F)c3ncccc23)C1` [Compound 470, N-[(3R,5S)-1-(8-Fluoro-quinolin-5-yl)-5-methyl-piperidin-3-yl]-2-morpholin-4-yl-acetamide], the IC50 was in the range of 1000 to 10000 nM.

On to `CCN(C)CCNC(=O)C1CCN(c2ccc(C(F)(F)F)c3ncccc23)CC1` [Compound 436, 1-(8-Trifluoromethyl-quinolin-5-yl)-piperidine-4-carboxylic acid [2-(ethyl-methyl-amino)-ethyl]-amide], for which the IC50 is less than 1000 nM.

As to `CN1CCC(CC(=O)N[C@H]2C[C@@H](C(F)(F)F)CN(c3ccc(C#N)c4ncccc34)C2)CC1` (relative stereo) [Compound 478, cis-N-[1-(8-Cyano-quinolin-5-yl)-5-trifluoromethyl-piperidin-3-yl]-2-(1-methyl-piperidin-4-yl)-acetamide], the IC50 is less than 1000 nM.

Regarding `C[C@H]1C[C@@H](NC(=O)C(O)C2CC2)CN(c2ccc(C(F)(F)F)c3ncccc23)C1` (single isomer, unassigned) [Compound 520], the IC50 is less than 1000 nM.

For the molecule `CCN(C)[C@@H](C)C(=O)N[C@@H]1C[C@H](C)CN(c2ccc(C#N)c3nccnc23)C1` [Compound 99, (2S)—N-[(3R,5S)-1-(8-cyanoquinoxalin-5-yl)-5-methylpiperidin-3-yl]-2-[ethyl(methyl)amino]propanamide], the IC50 is less than 1000 nM.

As to `C[C@H]1C[C@@H](NCC(=O)N2CCC2)CN(c2ccc(C(F)(F)F)c3ncccc23)C1` [Compound 568, 1-Azetidin-1-yl-2-[(3R,5S)-5-methyl-1-(8-trifluoromethyl-quinolin-5-yl)-piperidin-3-ylamino]-ethanone], the IC50 was less than 1000 nM.

For the molecule `CCC(C)C(=O)N[C@@H]1C[C@H](C)CN(c2ccnc3nccnc23)C1` (single isomer, unassigned) [Compound 156], the IC50 is more than 10000 nM.

In the case of `C[C@H]1C[C@@H](NC(=O)C(C)(C)C2CCN(C)CC2)CN(c2ccc(C(F)(F)F)c3nccnc23)C1` [Compound 355, 2-methyl-N-[(3R,5S)-5-methyl-1-[8-(trifluoromethyl)quinoxalin-5-yl]piperidin-3-yl]-2-(1-methylpiperidin-4-yl)propanamide], the IC50 was less than 1000 nM.

As to `C[C@H]1C[C@@H](NC(=O)CC(C)(C)C)CN(c2ccnc3nccnc23)C1` [Compound 41, 3,3-dimethyl-N-((3R,5S)-5-methyl-1-(pyrido[2,3-b]pyrazin-8-yl)piperidin-3-yl)butanamide], the IC50 is 1000 to 10000 nM.

On to `CCN(CC)C1CCN(CC2CCN(c3ccnc4nccnc34)CC2)CC1` [Compound 4, N,N-diethyl-1-((1-(pyrido[2,3-b]pyrazin-8-yl)piperidin-4-yl)methyl)piperidin-4-amine], for which the IC50 is 1000 to 10000 nM.

On to `CC(C(=O)N[C@@H]1C[C@H](C)CN(c2ccc(C(F)F)c3nccnc23)C1)N1CCC(O)CC1` (stereo partly drawn) [Compound 325, N-[(3R,5S)-1-[8-(difluoromethyl)quinoxalin-5-yl]-5-methylpiperidin-3-yl]-2-(4-hydroxypiperidin-1-yl)propanamide], for which the IC50 lay in the range of 1000 to 10000 nM.

Turning to `C[C@@H]1CN(c2ccc(C#N)c3nccnc23)C[C@H](CN2CCN(C)CC2)O1` [Compound 50, 8-((2R,6S)-2-methyl-6-((4-methylpiperazin-1-yl)methyl)morpholino)quinoxaline-5-carbonitrile], the IC50 is less than 1000 nM.

With `CC(C)[C@H](N)C(=O)N[C@@H]1C[C@H](C)CN(c2ccnc3nccnc23)C1` [Compound 105, (2S)-2-amino-3-methyl-N-[(3R,5S)-5-methyl-1-[pyrido[2,3-b]pyrazin-8-yl]piperidin-3-yl]butanamide], the IC50 was less than 1000 nM.

In the case of `CCN(CC)CCNC(=O)C1CCN(c2ccc(C#N)c3ncccc23)CC1` [Compound 407, 1-(8-Cyano-quinolin-5-yl)-piperidine-4-carboxylic acid (2-diethylamino-ethyl)-amide], the IC50 is less than 1000 nM.

On to `Cc1ccc(N2C[C@@H](C)C[C@@H](N)C2)c2cccnc12` [Compound 462, (3R,5S)-5-Methyl-1-(8-methyl-quinolin-5-yl)-piperidin-3-ylamine hydrochloride], for which the IC50 was less than 1000 nM.

Regarding `CN1CC(CC(=O)NC2CC(C(F)(F)F)CN(c3ccc(C#N)c4ncccc34)C2)C1` (racemic) [Compound 490, cis-N-[(1-(8-Cyano-quinolin-5-yl)-5-trifluoromethyl-piperidin-3-yl]-2-(1-methyl-azetidin-3-yl)-acetamide], the IC50 is less than 1000 nM.

As to `c1ccc2c(N3CCC(COCCN4CCCCC4)CC3)ccnc2c1` [Compound 6, 4-(4-[[2-(piperidin-1-yl)ethoxy]methyl]piperidin-1-yl)quinoline], the IC50 lay within 1000 to 10000 nM.

`CNC(=O)CCC(=O)N[C@@H]1C[C@H](C)CN(c2cnc(C)c3ncccc23)C1` [Compound 565, N-Methyl-N′-[(3R,5S)-5-methyl-1-(8-methyl-[1,7]naphthyridin-5-yl)-piperidin-3-yl]-succinamide]: the IC50 lay in the range of 1000 to 10000 nM.

Turning to `CCN(CC)CCNCC1CCN(c2c(C)c(C)nc3ccc(F)cc23)CC1` [Compound 385, N,N-Diethyl-N′-[1-(6-fluoro-2,3-dimethyl-quinolin-4-yl)-piperidin-4-ylmethyl]-ethane-1,2-diamine], the IC50 is 1000 to 10000 nM.

As for `CC(C)[C@@H](O)C(=O)N[C@@H]1C[C@H](C)CN(c2ccc(C#N)c3nccnc23)C1` [Compound 21, (R)—N-((3R,5S)-1-(8-cyanoquinoxalin-5-yl)-5-methylpiperidin-3-yl)-2-hydroxy-3-methylbutanamide], the IC50 is less than 1000 nM.

With `C[C@H]1C[C@@H](NC(=O)N2C[C@@H](F)[C@@H](F)C2)CN(c2ccc(C(F)(F)F)c3ncccc23)C1` [Compound 583, (3R,4S)-3,4-Difluoro-pyrrolidine-1-carboxylic Acid [(3R,5S)-5-methyl-1-(8-trifluoromethyl-quinolin-5-yl)-piperidin-3-yl]-amide], the IC50 lay in the range of 1000 to 10000 nM.

`N#Cc1ccc(N2CC(NC(=O)C(N)C3CC3)CC(C(F)(F)F)C2)c2cccnc12` (mixture of isomers) [Compound 486, rac-(R)-2-Amino-N-[(3R,5S)-1-(8-cyano-quinolin-5-yl)-5-trifluoromethyl-piperidin-3-yl]-2-cyclopropyl-acetamide]: the IC50 was less than 1000 nM.

Regarding `CCN1CCC[C@H]1C(=O)NCC1CCN(c2ccc(C#N)c3ncccc23)CC1` [Compound 435, (S)-1-Ethyl-pyrrolidine-2-carboxylic Acid [1-(8-cyano-quinolin-5-yl)-piperidin-4-ylmethyl]-amide], the IC50 was less than 1000 nM.

For the molecule `COc1ccc(C(=O)NCC2CCN(c3ccnc4nccnc34)CC2)cc1OC` [Compound 391, 3,4-Dimethoxy-N-(1-pyrido[2,3-b]pyrazin-8-yl-piperidin-4-ylmethyl)-benzamide], the IC50 is more than 10000 nM.
